The record followed here is PubChem BioAssay (NCI).

Common to all, as to assay: DTP human tumour cell line panel, 48 h
Test [1] has as its system A549 NSCLC.
Test [2] has as its system PC-3 prostate.
For test [3], the system named is NCI-H23 lung.
Test [4] concerns MOLT-4 leukemia.
The subject of test [5] is SF-539 CNS.
Test [6] relates to K-562 leukemia.
Test [7] has as its system DU-145 prostate.
Test [8] deals with OVCAR-3 ovarian.
The test system of test [9] is SK-MEL-5 melanoma.
Test [10] relates to A498 renal.

Structures are written as SMILES. Where “and” joins values, the source holds several entries; their conditions need not be identical. Equal values may be shown once.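 A five-concentration, 48-hour dose response in 96-well plates underlies each endpoint, interpolated linearly between surrounding concentrations. The concentration for 50% growth inhibition is given as GI50. At the TGI there is no net growth.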 Some results are limits rather than exact numbers.

`Cc1cccc2c1NC(=O)C2(c1ccc(O)cc1)c1ccc(O)cc1`: the GI50 was 21.1 µM in test [1]; 0.0497 µM in test [2]; 0.0459 µM in test [3]; 11.8 µM in test [4]; 17.7 µM in test [5]; 19.1 µM in [6]. Also, the GI50 in test [7] was 15.3 µM; in test [8] it was below 0.01 µM; in test [9] it was 15.9 µM; in test [10] it was 0.559 µM. Moreover, the TGI is above 100 µM in [1]; above 62 µM in [2]; 31.8 µM in test [3]; 75 µM in test [4]; 45.8 µM in test [5]; 99.5 µM in [6]. Moreover, the TGI was 55.4 µM in test [7], 14 µM in test [8], 33.2 µM in test [9] and 25.1 µM in test [10].
On to `COc1cccc2cc(-c3nc(C4CCC(C(=O)O)CC4)n4ncnc(N)c34)[nH]c12` (centres undefined), for which the GI50 is 1.21 µM and 1.97 µM in [1]; 0.129 µM and 0.342 µM in test [2]; 0.634 µM and 0.734 µM in test [3]; 0.4 µM and 0.767 µM in test [4]; 0.309 µM and 0.516 µM in test [5]; 0.499 µM and 2.63 µM in test [6]. Besides, the GI50 was 1.22 µM and 1.63 µM in test [7]; 0.253 µM and 0.394 µM in test [8]; 0.313 µM and 0.79 µM in test [9]; 0.0677 µM and 0.0601 µM in test [10]. The TGI in test [1] was 11.8 µM and > 10 µM; in [2], 2.03 µM and 4.42 µM; in test [3], 18.4 µM and > 10 µM; in test [4] it was above 40.8 µM; in test [5], 2.71 µM and 4.09 µM; in test [6], above 100 µM. The total growth inhibition concentration (TGI) was 24.3 µM and > 10 µM in [7]; 4.27 µM and > 7.87 µM in [8]; 4.19 µM and 5.7 µM in [9]; 0.407 µM and 0.365 µM in test [10].
For `O=C1c2ccccc2CCC1(Br)Br`, the GI50 in test [1] was 6.84 µM; in test [2], 4.14 µM; in [3] it was 1.99 µM; in [4] it was 0.631 µM; in [5], 1.88 µM; in test [6] it was 0.357 µM. Moreover, the GI50 in test [7] is 3.73 µM; in test [8], 1.75 µM; in [9], 2.32 µM; in [10], 7.69 µM. The concentration for total growth inhibition (TGI) was determined as 19.1 µM in test [1]; 16.9 µM in test [2]; 4.9 µM in test [3]; 3.94 µM in test [4]; 3.74 µM in test [5]; 2.02 µM in test [6]. The concentration for total growth inhibition (TGI) in [7] turned out to be 12 µM; in test [8] it was 3.17 µM; in test [9], 5.87 µM; in [10] it was 20.9 µM.
Turning to `Cc1ccc(C(CC(=O)c2ccccc2)C(C(=O)c2ccccc2)C(c2ccc(C)cc2)C2C(=O)NC(=S)NC2=O)cc1` (centres undefined), the GI50 in test [1] is 12.8 µM; in test [2], 10.4 µM; in [3] it was 15.1 µM; in test [4], 8.85 µM; in test [5] it was 28.9 µM; in [6], 26.7 µM. The GI50 was 18.5 µM in [7], 19 µM in test [8], 10.6 µM in test [9] and 18.3 µM in test [10]. The TGI in test [1], in [2], in test [3], in test [4], in test [5] and in [6] was above 50 µM in each case. In addition, the TGI in test [7], in test [8], in test [9] and in test [10] was above 50 µM each time.
In the case of `O=C(NCc1cccs1)OC1CC2CCC1C2` (centres undefined), the concentration for total growth inhibition (TGI) in [1], in [2], in test [3], in test [4], in test [5] and in test [6] was above 100 µM throughout. For the same molecule, the concentration for total growth inhibition (TGI) in [7], in test [8], in [9] and in [10] was above 100 µM throughout.
Consider `O=C(Nc1ccc(O)c(NS(=O)(=O)c2ccc(F)cc2)c1)c1ccc(-c2ccccc2)cc1`, for which the GI50 was 4.81 µM in test [1]; 3.84 µM in [2]; 10.5 µM in test [3]; 2.58 µM in [4]; 8.93 µM in test [5]; 3.68 µM in test [6]. The GI50 in test [7] was 11.7 µM; in test [8], 4.72 µM; in test [9] it was 6.42 µM; in test [10], 13.4 µM. The concentration for total growth inhibition (TGI) in [1] worked out at 29.9 µM; in test [2] it was 16.7 µM; in test [3], 24.3 µM; in test [4], 11 µM; in test [5], 22.4 µM; in test [6], 14.6 µM. In addition, the TGI was 26.3 µM in test [7], 22.1 µM in [8], 19.3 µM in test [9] and 26.7 µM in test [10].
As for `COc1ccc(NC(=O)CC(=O)n2nc(-c3ccccc3)c(N=Nc3ccccc3C)c2-c2ccccc2)cc1`, the TGI was 41.7 µM in test [1]; 32.8 µM in test [2]; 51.1 µM in [3]; above 100 µM in [4]; 28.8 µM in test [5]; above 100 µM in [6]. Further, the concentration for total growth inhibition (TGI) in test [7] was above 100 µM; in test [8] it was 33.3 µM; in test [9], above 86.5 µM; in test [10], 52.6 µM.
Take `COCO[C@@H]1CC2C=Nc3cc(OCc4ccccc4)c(OC)cc3C(=O)N2C1` (some centres undefined): the GI50 in [1] was 0.468 µM; in test [2], 1.09 µM; in [3], 0.672 µM; in test [4], 0.175 µM; in test [5], 0.163 µM; in test [6], 0.45 µM. Moreover, the 50% growth inhibitory concentration (GI50) was 0.426 µM in [7], 0.222 µM in test [8], 0.357 µM in test [9] and 0.976 µM in test [10]. In addition, the TGI is 9.15 µM in test [1]; 36.9 µM in [2]; 1.97 µM in test [3]; 0.815 µM in test [5]; above 100 µM in [6]; 5.24 µM in [7]. Further, the concentration for total growth inhibition (TGI) was determined as 3.13 µM in [8], 0.908 µM in test [9] and 3.25 µM in test [10].
